Measured values published in ChEMBL document CHEMBL5236589, “Design and Structural Optimization of Orally Bioavailable SOS1 Inhibitors for the Treatment of KRAS-Driven Carcinoma” (J Med Chem, 2022).

Tests used:
[1] = molecular target: SOS1-KRAS (Homo sapiens, UniProt Q07889); test: Inhibition of human recombinant SOS1 (residue 564-1049)/KRAS G12C mutant protein-protein interaction at incubated for 25 degC for 60 mins by homogeneous time-resolved fluorescence (HTRF) method
[2] = Inhibition of SOS1/KRAS G13D mutant protein-protein interaction in human DLD-1 cells assessed as ERK1/2 phosphorylation measured after 1 hr by homogeneous time-resolved fluorescence (HTRF) method; assay type: cell-based; settings: DLD-1, 1 h
[3] = Half life in ICR mouse at 20 mg/kg, po by LC-MS/MS analysis; assay type: ADME, organism-based; settings: ICR, in vivo
[4] = Tmax in ICR mouse at 20 mg/kg, po by LC-MS/MS analysis; assay type: ADME, organism-based; settings: in vivo
[5] = Cmax in ICR mouse at 20 mg/kg, po by LC-MS/MS analysis; assay type: ADME, organism-based; parameters: dose 20 mg/kg, route po; settings: in vivo
[6] = AUC in ICR mouse at 20 mg/kg, po by LC-MS/MS analysis; assay type: ADME, organism-based; parameters: dose 20 mg/kg, route po; settings: in vivo
[7] = MRT in ICR mouse at 20 mg/kg, po by LC-MS/MS analysis; assay type: ADME, organism-based; settings: in vivo
[8] = Elimination rate constant in ICR mouse at 20 mg/kg, po by LC-MS/MS analysis; assay type: ADME, organism-based; settings: ICR, in vivo

SOS1-KRAS, sequence (Q07889 whole entry, looked up, stated change not applied): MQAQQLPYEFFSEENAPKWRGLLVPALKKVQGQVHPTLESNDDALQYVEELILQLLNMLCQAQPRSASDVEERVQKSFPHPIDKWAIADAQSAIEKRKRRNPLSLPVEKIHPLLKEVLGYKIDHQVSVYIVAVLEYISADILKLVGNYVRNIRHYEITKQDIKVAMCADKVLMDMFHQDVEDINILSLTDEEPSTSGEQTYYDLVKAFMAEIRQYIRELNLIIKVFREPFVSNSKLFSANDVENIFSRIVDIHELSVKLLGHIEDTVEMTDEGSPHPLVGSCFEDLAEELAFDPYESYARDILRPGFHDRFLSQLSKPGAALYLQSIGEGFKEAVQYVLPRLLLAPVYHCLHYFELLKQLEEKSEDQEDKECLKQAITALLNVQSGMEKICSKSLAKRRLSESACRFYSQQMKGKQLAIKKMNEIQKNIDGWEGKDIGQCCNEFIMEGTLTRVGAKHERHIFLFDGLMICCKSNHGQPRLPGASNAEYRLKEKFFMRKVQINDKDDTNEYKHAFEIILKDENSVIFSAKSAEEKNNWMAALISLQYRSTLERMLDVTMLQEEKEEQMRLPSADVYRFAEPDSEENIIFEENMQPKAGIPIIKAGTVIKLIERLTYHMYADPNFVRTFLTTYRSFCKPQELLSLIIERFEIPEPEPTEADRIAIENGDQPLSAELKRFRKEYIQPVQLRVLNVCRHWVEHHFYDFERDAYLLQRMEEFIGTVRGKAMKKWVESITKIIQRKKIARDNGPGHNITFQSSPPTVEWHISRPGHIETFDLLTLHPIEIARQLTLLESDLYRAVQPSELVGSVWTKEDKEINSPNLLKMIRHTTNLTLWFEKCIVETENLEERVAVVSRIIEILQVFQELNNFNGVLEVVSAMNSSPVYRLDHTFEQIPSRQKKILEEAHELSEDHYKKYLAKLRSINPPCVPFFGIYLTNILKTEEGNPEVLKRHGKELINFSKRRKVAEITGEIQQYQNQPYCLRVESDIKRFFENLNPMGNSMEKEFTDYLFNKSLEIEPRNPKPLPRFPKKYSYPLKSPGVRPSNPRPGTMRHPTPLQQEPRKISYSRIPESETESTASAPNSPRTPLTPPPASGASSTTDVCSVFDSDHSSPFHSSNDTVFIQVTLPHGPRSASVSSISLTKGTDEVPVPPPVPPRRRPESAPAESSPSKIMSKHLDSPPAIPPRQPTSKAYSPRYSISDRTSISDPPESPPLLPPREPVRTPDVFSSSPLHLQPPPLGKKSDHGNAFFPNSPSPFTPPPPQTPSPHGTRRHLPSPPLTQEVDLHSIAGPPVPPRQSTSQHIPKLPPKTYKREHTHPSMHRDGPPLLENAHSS

Row | SMILES | IC50 [1] [nM] | IC50 [2] [nM] | half-life [3] [h] | Tmax [4] [h] | Cmax [5] [ng/mL] | AUC [6] [ng·h/mL] | MRT [7] [h] | k el [8] [s⁻¹]
1 | Cc1nc(N[C@H](C)c2cc(N)cc(C(F)(F)F)c2)c2cc3c(cc2n1)OC[C@H]1CN(C2CCOCC2)CCN31 | 18 | 48 | – | – | – | – | – | –
2 | CC(=O)N1CCN2c3cc4c(N[C@H](C)c5cc(N)cc(C(F)(F)F)c5)nc(C)nc4cc3OC[C@@H]2C1 | 12.8 | 48 | – | – | – | – | – | –
3 | Cc1nc(N[C@H](C)c2cccc(C(F)F)c2F)c2cc3c(cc2n1)OC[C@H]1CN(C(=O)C2CC2)CCN31 | – | 367 | – | – | – | – | – | –
4 | CC(=O)N1CCN2c3cc4c(N[C@H](C)c5cccc(C(F)F)c5F)nc(C)nc4cc3OC[C@@H]2C1 | 13.8 | 38 | – | – | – | – | – | –
5 | Cc1nc(N[C@H](C)c2cccc(C(F)F)c2F)c2cc3c(cc2n1)OC[C@H]1CN(C(=O)[C@@H]2C[C@@H]2F)CCN31 | – | 22 | – | – | – | – | – | –
6 | Cc1nc(N[C@H](C)c2cccc(C(F)F)c2F)c2cc3c(cc2n1)OC[C@H]1CN(C(=O)[C@@H]2CCOC2)CCN31 | – | 21 | 18 | 8 | 47 | 780 | 9.65 | 8.33e-06
7 | Cc1nc(N[C@H](C)c2cccc(C(F)F)c2F)c2cc3c(cc2n1)OC[C@H]1CN(C(=O)[C@@H]2CCCN2C)CCN31 | – | 104 | – | – | – | – | – | –
8 | Cc1nc(N[C@H](C)c2cccc(C(F)F)c2F)c2cc3c(cc2n1)OC[C@H]1CN(C(=O)N(C)C)CCN31 | – | 2.9 | 12.3 | 3 | 621 | 3980 | 4.2 | 2.5e-05
9 | Cc1nc(N[C@H](C)c2cccc(C(F)F)c2F)c2cc3c(cc2n1)OC[C@H]1CN(C(=O)C2CCN(C)CC2)CCN31 | – | 98 | – | – | – | – | – | –
10 | Cc1nc(N[C@H](C)c2cccc(C(F)F)c2F)c2cc3c(cc2n1)OC[C@H]1CN(C(=O)N2CCOCC2)CCN31 | – | 9.7 | 1.78 | 0.5 | 356 | 872 | 2.14 | 0.0001
11 | Cc1nc(N[C@H](C)c2cc(N)cc(C(F)(F)F)c2)c2cc3c(cc2n1)OC[C@H]1CN(C2COC2)CCN31 | 15.6 | 45 | – | – | – | – | – | –
12 | Cc1nc(N[C@H](C)c2cccc(C(F)F)c2F)c2cc3c(cc2n1)OC[C@H]1CN(C(=O)C2(C)CC2)CCN31 | – | > 1000 | – | – | – | – | – | –
13 | COCC(=O)N1CCN2c3cc4c(N[C@H](C)c5cccc(C(F)F)c5F)nc(C)nc4cc3OC[C@H]2C1 | – | 10 | 5.86 | 0.83 | 180 | 860 | 3.43 | 3.06e-05
14 | Cc1nc(N[C@H](C)c2cccc(C(F)F)c2F)c2cc3c(cc2n1)OC[C@H]1CN(C(=O)N2CCN(C)CC2)CCN31 | – | 99 | – | – | – | – | – | –
15 | Cc1nc(N[C@H](C)c2cccc(C(F)F)c2F)c2cc3c(cc2n1)OC[C@H]1CN(C(=O)c2ccnn2C)CCN31 | – | 691 | – | – | – | – | – | –
16 | COCC1(C(=O)N2CCN3c4cc5c(N[C@H](C)c6cccc(C(F)F)c6F)nc(C)nc5cc4OC[C@H]3C2)CC1 | – | 0.9 | 2.28 | 0.25 | 161 | 398 | 2.62 | 8.33e-05
17 | CC(=O)N1CCN2c3cc4c(N[C@H](C)c5cccc(C(F)F)c5F)nc(C)nc4cc3OCC2C1 (stereo not given in full) | 8.8 | 19 | – | – | – | – | – | –
18 | Cc1nc(N[C@H](C)c2cc(N)cc(C(F)(F)F)c2)c2cc3c(cc2n1)OC[C@H]1COCCN31 | 6 | 38 | – | – | – | – | – | –
19 | CCNC(=O)N1CCN2c3cc4c(N[C@H](C)c5cccc(C(F)F)c5F)nc(C)nc4cc3OC[C@H]2C1 | – | 32 | – | – | – | – | – | –
20 | Cc1nc(N[C@H](C)c2cccc(C(F)F)c2F)c2cc3c(cc2n1)OC[C@H]1CN(C(=O)c2ccn[nH]2)CCN31 | – | 376 | – | – | – | – | – | –
21 | Cc1nc(N[C@H](C)c2cccc(C(F)F)c2F)c2cc3c(cc2n1)OC[C@H]1CN(C(=O)C2(F)CC2)CCN31 | – | 1.7 | 2.34 | 1.5 | 582 | 2100 | 2.59 | 8.33e-05
22 | Cc1nc(N[C@H](C)c2cccc(C(F)F)c2F)c2cc3c(cc2n1)OC[C@H]1CN(c2ncc(F)cn2)CCN31 | – | 99 | – | – | – | – | – | –
23 | COCCN1CCN2c3cc4c(N[C@H](C)c5cccc(C(F)F)c5F)nc(C)nc4cc3OC[C@H]2C1 | – | 97 | – | – | – | – | – | –
